Each block holds one compound with its values, some of them ahead of it.
Legend:
NLRP3 [1] = molecular target: T1, NLRP3 (Mus musculus, UniProt Q8R4B8); assay: Photoaffinity labeling of recombinant NLRP3 with YM-I-27 and NBD-Azide click, with competition; type: binding
T1 construct: The recombinant full-length NLRP3 protein was expressed and purified as previously described using Expi293F cells; FLAG (N); host or cells: Expi293F
Experimental: 30 μL aliquots of recombinant NLRP3 or a mixture of J774A.1 cell lysate and NLRP3 were incubated with or without YM-I-27 at the indicated concentrations at 37 °C for 30 min. The samples were then placed on ice and irradiated at 365 nm for 15 min. Subsequently, 1 μL of NBD-Azide (5 mM) or Biotin-PEG3-Azide (5 mM) was added to the samples, followed by the addition of 1 μL of CuSO4 (50 mM), tris(benzyltriazolylmethyl)-amine (TBTA) (30 mM), and tris(2-carboxyethyl)-phosphine (TCEP) (100 mM). The CuAAC reactions were agitated at room temperature for 1 h, and proteins were precipitated with prechilled methanol and left to dry. The protein pellets were then suspended in 30 μL of 2x SDS loading buffer and heated for 10 min at 95 °C. […] The Biotin-PEG3-Azide-labeled proteins were then transferred to membranes and analyzed by Western blotting using streptavidin-HRP and NLRP3 antibodies, respectively.

endogenous NLRP3 = molecular target: T2, endogenous NLRP3 (Mus musculus, UniProt Q8R4B8); assay: Immunocytochemistry FRET assay in J774A.1 cells; type: cell-based, murine; settings: LPS-treated J774A.1 cells; TAMRA acceptor clicked to probe
T2 construct: endogenous in cells; host or cells: J774A.1 murine macrophages (LPS- or Pam3CSK4-primed)
Experimental: J774A.1 cells were treated with 1 μg/mL LPS for 4.5 h, and the photoactive probe (YM-I-27) was added and incubated for 30 min. Cells were irradiated at 365 nm for 30 min on ice and were fixed and permeabilized following the Immunofluorescence Microscopy procedures. The click reaction was performed in PBS containing TAMRA-N3 (30 μM), CuSO4 (800 μM), TBTA (500 μM), and TCEP (500 μM) at room temperature in the dark for 2.5 h. Cells were thoroughly washed with PBS and blocked by following the above procedures. Cells were then treated with anti-NLRP3 (cryo-2, 1:200) for 1.5 h, followed by Alexa Fluor 488-conjugated antimouse secondary antibody (Thermo Fisher, 4 μg/mL). Coverslips were mounted to slides, and data were acquired using a Zeiss LSM710 confocal microscope (Zeiss) and a 440 nm pulsed laser. The difference in the fluorescence lifetime was calculated by subtracting the median lifetime of Alexa Fluor 488 (donor) in the absence and presence of the YM-I-27 probe clicked with TAMRA (acceptor).

NLRP3 inflammasome = molecular target: T3, NLRP3 inflammasome (Mus musculus, UniProt Q8R4B8); assay: IL-1β production in J774A.1 cells upon NLRP3 inflammasome activation (ELISA); type: cell-based, murine; settings: for IC50: LPS/ATP activation
T3 construct: endogenous in cells; host or cells: J774A.1 murine macrophages (LPS- or Pam3CSK4-primed)
Experimental: The levels of IL-1β and TNF-α in the supernatant were measured by ELISA.

NLRP3 [2] = molecular target: T1, NLRP3; assay: In situ proteome click labeling in J774A.1 cell lysate spiked with NLRP3; type: binding, murine; settings: YM-I-27 3 and 10 μM; Biotin-PEG3-Azide click; J774A.1 lysate:NLRP3 20:1
Experimental: 30 μL aliquots of recombinant NLRP3 or a mixture of J774A.1 cell lysate and NLRP3 were incubated with or without YM-I-27 at the indicated concentrations at 37 °C for 30 min. The samples were then placed on ice and irradiated at 365 nm for 15 min. Subsequently, 1 μL of NBD-Azide (5 mM) or Biotin-PEG3-Azide (5 mM) was added to the samples, followed by the addition of 1 μL of CuSO4 (50 mM), tris(benzyltriazolylmethyl)-amine (TBTA) (30 mM), and tris(2-carboxyethyl)-phosphine (TCEP) (100 mM). The CuAAC reactions were agitated at room temperature for 1 h, and proteins were precipitated with prechilled methanol and left to dry. The protein pellets were then suspended in 30 μL of 2x SDS loading buffer and heated for 10 min at 95 °C. The SDS-PAGE gels of NBD-Azide-labeled proteins were then washed with washing buffer (10% acetic acid, 40% methanol in water) for 2 h and imaged using ChemiDoc MP Imaging System (Bio-Rad) with Alexa Fluor 488 (λex = 490 nm, λem = 525 nm). The Biotin-PEG3-Azide-labeled proteins were then transferred to membranes and analyzed by Western blotting using streptavidin-HRP and NLRP3 antibodies, respectively.

NLRP3, NEK7, ASC = molecular target: T4, NLRP3, NEK7, ASC (Mus musculus, UniProt Q8R4B8); assay: Photoaffinity labeling and pull-down with YM-I-85 in LPS-primed J774A.1 cell lysates; type: binding, murine; settings: UV irradiation
T4 construct: endogenous in cells; host or cells: J774A.1 murine macrophages (LPS- or Pam3CSK4-primed)
Experimental: LPS-primed J774A.1 cells were lysed with NP-40 lysis buffer (50 mM Tris-HCl at pH 8, 150 mM NaCl, 1.0% NP-40, supplemented with cOmplete mini protease inhibitor cocktail) and centrifuged at 20,000g for 20 min at 4 °C. The supernatant was diluted to a concentration of 1.2 mg/mL and incubated with the competing compound for 1 h on ice, followed by incubation with YM-I-85 for 1 h on ice. Samples were irradiated at 365 nm for 15 min and then incubated with Streptavidin Agarose Resin (Thermo Fisher) overnight at 4 °C. The resins were washed once with 0.1% SDS in PBS and twice with 1% NP-40 in PBS before eluting with SDS-PAGE loading buffer and boiling. Beads were spun down, and the supernatants were analyzed by immunoblotting.

[3] = system: caspase-1 and GSDMD cleavage; assay: Western blot of cleavage of caspase-1 and GSDMD in J774A.1 cells; type: cell-based, murine; settings: LPS 10 μg/mL/nigericin 10 μM
TNF-α = TNF-α production in J774A.1 cells under LPS/nigericin (ELISA); type: cell-based, murine
mitochondrial ROS = assay: Mitochondrial ROS and integrity (MitoSOX/MitoTracker) in J774A.1 cells; type: cell-based, murine; settings: LPS/nigericin, YQ128 10 μM
Experimental: J774A.1 cells (5 × 10^5 cells/mL) were plated in 12-well plates precoated with poly-L-lysine overnight. […] The supernatants were discarded, and the cells were washed with ice-cold PBS three times and fixed with 4% PFA in PBS for 15 min. DAPI (5 μg/mL) was used for nuclear staining. After that, the cells were washed with PBS three times, and fluorescence microscopy analyses were carried out using an Olympus IX73.
Figure S2. J774A.1 were primed with LPS (1 μg/mL) for 4.5 h and treated with or […]
h. Cells were stained with MitoSOX and MitoTracker red. Nuclei were stained with […]
Figure S3. YQ128 (A&B) and MCC950 (C&D) dose-dependently block the recognition of NLRP3 by D4D8T antibody. […]

ASC specks = assay: ASC speck formation by immunofluorescence in J774A.1 cells; type: cell-based, murine; settings: LPS/nigericin, YQ128 10 and 20 μM
caspase-1 = molecular target: T5, caspase-1 (Homo sapiens, UniProt P29466); assay: In vitro caspase-1 cleavage assay (recombinant YTHDF2 substrate); settings: recombinant caspase-1; YQ128 1, 3 and 10 μM
T5 sequence (P29466 120-297 limits assumed): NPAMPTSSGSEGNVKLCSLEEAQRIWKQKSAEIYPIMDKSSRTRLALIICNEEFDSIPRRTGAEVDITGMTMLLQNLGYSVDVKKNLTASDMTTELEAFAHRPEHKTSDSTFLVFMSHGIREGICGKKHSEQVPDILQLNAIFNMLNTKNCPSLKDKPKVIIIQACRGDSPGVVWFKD
T5 sequence (P29466 317-404 limits assumed): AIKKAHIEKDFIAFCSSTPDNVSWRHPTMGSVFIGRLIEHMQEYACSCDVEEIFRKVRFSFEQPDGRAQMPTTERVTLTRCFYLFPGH
Experimental: The reactions were then terminated by boiling in 2× SDS sample buffer, and the samples were analyzed by Western blotting.

[4] = molecular target: T6, recombinant human NLRP3 protein (Homo sapiens, UniProt Q96P20); assay: Microscale thermophoresis (MST); type: binding; settings: n = 3
T6 construct: The recombinant full-length NLRP3 protein was expressed and purified as previously described using Expi293F cells; 10His (N); 6His (C); made in house; host or cells: Expi293F
T6 sequence (Q96P20 whole entry): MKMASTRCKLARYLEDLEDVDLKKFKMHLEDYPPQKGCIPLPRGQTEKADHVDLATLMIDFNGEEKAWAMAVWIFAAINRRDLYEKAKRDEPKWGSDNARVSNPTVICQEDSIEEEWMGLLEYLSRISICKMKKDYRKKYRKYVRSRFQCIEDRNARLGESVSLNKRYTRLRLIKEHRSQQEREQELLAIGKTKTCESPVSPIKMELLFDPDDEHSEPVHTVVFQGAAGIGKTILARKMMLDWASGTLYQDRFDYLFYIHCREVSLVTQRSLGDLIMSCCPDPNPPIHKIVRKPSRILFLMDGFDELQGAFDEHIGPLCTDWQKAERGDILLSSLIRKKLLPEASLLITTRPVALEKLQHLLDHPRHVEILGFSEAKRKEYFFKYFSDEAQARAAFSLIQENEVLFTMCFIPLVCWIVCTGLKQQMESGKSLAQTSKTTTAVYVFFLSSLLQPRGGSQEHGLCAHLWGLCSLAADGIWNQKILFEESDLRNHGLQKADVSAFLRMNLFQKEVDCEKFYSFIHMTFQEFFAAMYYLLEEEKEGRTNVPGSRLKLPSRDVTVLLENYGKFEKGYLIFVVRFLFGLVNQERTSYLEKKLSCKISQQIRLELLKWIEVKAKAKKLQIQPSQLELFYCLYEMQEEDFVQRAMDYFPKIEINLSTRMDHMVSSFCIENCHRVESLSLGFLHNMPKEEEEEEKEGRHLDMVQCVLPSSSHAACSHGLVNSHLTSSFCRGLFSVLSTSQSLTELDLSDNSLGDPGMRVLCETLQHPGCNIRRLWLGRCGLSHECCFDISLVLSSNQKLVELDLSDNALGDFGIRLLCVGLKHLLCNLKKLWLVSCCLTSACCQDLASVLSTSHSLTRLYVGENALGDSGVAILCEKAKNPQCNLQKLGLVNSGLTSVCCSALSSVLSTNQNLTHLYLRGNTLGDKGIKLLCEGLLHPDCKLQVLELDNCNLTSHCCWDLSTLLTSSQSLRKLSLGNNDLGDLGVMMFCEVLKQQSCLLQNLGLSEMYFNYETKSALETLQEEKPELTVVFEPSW
Experimental: The binding affinity was measured with a Monolith NT.Automated instrument as described previously. Recombinant human NLRP3 protein (500 nM) was labeled with 50 nM RED-tris-NTA dye (NanoTemper Technologies, MO-L018). […] The samples were loaded into NanoTemper glass capillaries, and thermophoresis curves were analyzed using the instrument.

[5] = system: NLRP3 and pro-IL-1β expression; assay: Western blot of LPS-induced NLRP3 and pro-IL-1β (priming stage) in J774A.1 cells; type: cell-based, murine; settings: YQ128 10 μM, curcumin 150 μM, MCC950 1 μM, LPS 1 μg/mL
[6] = system: full-length NLRP3, PYD-NACHT fragment, PYD fragment; assay: Drug affinity responsive target stability (DARTS); type: binding, human; settings: YQ128 50 μM; 50–200 ng Pronase per μg protein
Experimental: Then, 0.1 mg/mL Pronase (Sigma-Aldrich) was added at the protease to protein ratio, between 50 and 200 ng Pronase per μg of protein for 7.5–30 min at room temperature. The reaction was stopped by the addition of a 20x protease inhibitor cocktail and incubated on ice for 10 min. Protein samples were analyzed by immunoblotting.

NLRP3 NACHT domain = molecular target: T7, NLRP3 NACHT domain (Homo sapiens, UniProt Q96P20); assay: Surface plasmon resonance (SPR); type: binding; settings: biotinylated NACHT protein; single-cycle kinetics, 1:1 model
T7 construct: (K131-L679)-Avi plasmid; 8His-Strep II-ZZ-TEV site (N, cleaved yes); made in house; host or cells: Sf21 insect cells (baculovirus)
T7 sequence (Q96P20 131-679): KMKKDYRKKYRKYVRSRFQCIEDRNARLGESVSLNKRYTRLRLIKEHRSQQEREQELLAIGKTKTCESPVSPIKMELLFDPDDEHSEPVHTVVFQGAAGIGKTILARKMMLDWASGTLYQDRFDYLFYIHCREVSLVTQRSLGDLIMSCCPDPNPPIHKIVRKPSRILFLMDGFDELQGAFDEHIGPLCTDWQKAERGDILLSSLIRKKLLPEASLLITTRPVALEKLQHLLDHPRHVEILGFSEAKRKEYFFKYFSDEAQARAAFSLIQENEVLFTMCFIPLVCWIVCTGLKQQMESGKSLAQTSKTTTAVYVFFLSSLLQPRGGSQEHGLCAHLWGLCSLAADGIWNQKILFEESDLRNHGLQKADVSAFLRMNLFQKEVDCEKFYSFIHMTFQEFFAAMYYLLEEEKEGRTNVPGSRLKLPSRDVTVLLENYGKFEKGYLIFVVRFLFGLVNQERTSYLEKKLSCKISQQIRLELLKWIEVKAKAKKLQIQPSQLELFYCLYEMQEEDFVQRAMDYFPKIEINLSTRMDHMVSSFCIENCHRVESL
Experimental: Human biotinylated-NACHT domain of NLRP3 was expressed in Sf21 insect cells using the pFastBac1–8His-Strep II-ZZ-TEV-NLRP3­(K131-L679)-Avi plasmid. For protein expression, 1.6 L of insect cells were cultured with a viral stock of the second passage for 48 h at 27 °C. Cells were collected, lysed in lysis buffer (50 mM HEPES pH 7.5, 500 mM NaCl, 10% glycerol, 1 mM MgCl2, 1 mM TCEP, 100 μM ATP) and centrifuged at 16,000 rpm for 60 min. The supernatant was loaded onto a Ni Bestarose FF column and eluted with lysis buffer containing 300 mM imidazole. The sample was biotinylated in a tube containing BirA enzyme (1:100 (w/w) to protein) with biotin buffer and TEV protease (1:10 (w/w) to protein), and the reaction was incubated at 4 °C overnight. The sample was collected and eluted with a lysis buffer containing 75 mM biotin from Strep-Tactin XT columns. The biotinylated NACHT protein was further purified with HiLoad 16/600 Superdex 200 pg column with an elution buffer (50 mM HEPES pH 7.5, 500 mM NaCl, 10% glycerol, 1 mM MgCl2, 1 mM TCEP).
SPR experiments were performed on a Biacore 1K system with streptavidin sensor chip (Series S Sensor Chip SA, Cytiva) according to the reported procedure. The system was flushed with running buffer (10 mM HEPES, pH 7.4, 150 mM NaCl, 0.5 mM ADP, 0.5 mM TCEP, 2 mM MgCl2, 0.05% Tween 20, 2% DMSO). […]

T1 sequence (Q8R4B8 whole entry): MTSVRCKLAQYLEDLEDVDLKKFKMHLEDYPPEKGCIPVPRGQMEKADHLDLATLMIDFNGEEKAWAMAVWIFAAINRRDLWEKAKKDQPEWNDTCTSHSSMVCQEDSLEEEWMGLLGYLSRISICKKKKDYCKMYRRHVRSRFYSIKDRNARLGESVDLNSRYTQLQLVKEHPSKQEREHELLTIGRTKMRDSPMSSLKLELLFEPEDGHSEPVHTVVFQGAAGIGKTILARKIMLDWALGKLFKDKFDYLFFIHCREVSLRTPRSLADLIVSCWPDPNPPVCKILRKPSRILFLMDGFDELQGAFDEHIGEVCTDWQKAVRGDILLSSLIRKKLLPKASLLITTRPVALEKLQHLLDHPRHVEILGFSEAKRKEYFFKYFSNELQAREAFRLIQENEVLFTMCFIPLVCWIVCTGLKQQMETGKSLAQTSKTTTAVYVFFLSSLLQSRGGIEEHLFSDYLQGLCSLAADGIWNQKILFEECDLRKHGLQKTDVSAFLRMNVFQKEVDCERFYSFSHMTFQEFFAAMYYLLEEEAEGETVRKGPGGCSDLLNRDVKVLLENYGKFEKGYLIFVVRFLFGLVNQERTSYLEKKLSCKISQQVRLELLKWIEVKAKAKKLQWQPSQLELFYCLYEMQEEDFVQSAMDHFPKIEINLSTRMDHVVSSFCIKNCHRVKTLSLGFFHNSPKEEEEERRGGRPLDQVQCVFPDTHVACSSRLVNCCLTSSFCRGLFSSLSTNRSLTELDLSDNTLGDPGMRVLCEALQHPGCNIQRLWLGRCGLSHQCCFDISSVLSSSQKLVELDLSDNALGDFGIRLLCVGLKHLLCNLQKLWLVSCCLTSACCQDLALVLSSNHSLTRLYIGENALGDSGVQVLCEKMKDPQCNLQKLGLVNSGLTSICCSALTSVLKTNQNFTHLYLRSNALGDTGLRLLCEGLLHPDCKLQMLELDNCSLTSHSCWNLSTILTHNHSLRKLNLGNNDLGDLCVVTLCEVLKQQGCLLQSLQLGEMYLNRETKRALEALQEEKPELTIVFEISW

competition of YM-I-27 labeling of NLRP3 (NLRP3 [1]; recombinant NLRP3 preincubated with competitor): completely blocked the interaction
SMILES: O=C(O)c1ccc(/C=C2/SC(=S)N(Cc3cccc(C(F)(F)F)c3)C2=O)cc1 [CY-09, reference compound]

decrease of emission lifetime of Alexa Fluor 488 (FRET donor) (endogenous NLRP3): ~44 ps
IC50 (NLRP3 inflammasome): 500 nM
SMILES: C#CCCC1(CCOc2ccc(Cl)cc2CN(CCc2ccc(S(=O)(=O)NCC#C)cc2)C(=O)Cc2ccsc2)N=N1 [YM-I-27]
labeling of recombinant NLRP3 protein by probe (NLRP3 [1]; UV cross-linking, NBD-N3 click, fluorescent visualization): dose-dependently labeled the NLRP3 protein
in situ proteome labeling (NLRP3 [2]): successfully and efficiently recognized NLRP3 along with four other proteins

IC50 (NLRP3 inflammasome): 2400 nM
potency relative to YQ128 (fold less) (NLRP3 inflammasome; LPS/ATP, IL-1β): ~8 fold
SMILES: C#CCNS(=O)(=O)c1ccc(CCN(Cc2cc(Cl)ccc2OCCC2(CCc3cn(CCOCCOCCNC(=O)CCCCC4SCC5NC(=O)NC54)nn3)N=N2)C(=O)Cc2ccsc2)cc1 (centres unmarked) [YM-I-85]
photoaffinity labeling of proteins by probe (pull-down, Western blot) (NLRP3, NEK7, ASC): efficiently labeled NLRP3 and NEK7 in a dose-dependent manner but not ASC

Kd [4]: 117 nM
Kd (NLRP3 NACHT domain): 165 nM
SMILES: C#CCNS(=O)(=O)c1ccc(CCN(Cc2cc(Cl)ccc2OCCC)C(=O)Cc2ccsc2)cc1 [YQ128]
cleavage of caspase-1 and GSDMD [3]: inhibitory effect
production of TNF-α (TNF-α): No inhibition
production of mitochondrial ROS and integrity (mitochondrial ROS): no significant effect
formation of ASC specks (ASC specks): significantly suppressed the formation of ASC specks
catalytic activity of caspase-1 (caspase-1): does not interfere with the catalytic activity of caspase-1
levels of LPS-induced pro-IL-1β and NLRP3 [5]: neither YQ128 nor MCC950 changed the levels
Pronase digestion pattern (DARTS) [6]: the digestion pattern of the full-length NLRP3 and the PYD-NACHT fragment, but not the PYD fragment, by Pronase was altered

From paper PMC12670425, “Mechanistic Characterization of a Small Molecule as a Direct NLRP3 Inhibitor via Binding to the NACHT Domain” (Journal of Medicinal Chemistry, 2025)
